Assay results published in ChEMBL document CHEMBL3885861, “Open TG-GATES”.

Organism: Rattus norvegicus
Assay: Open TG-GATES - Regimen: Daily Repeat
Type: toxicity, organism-based, Sprague-Dawley
Set-up: regimen Daily Repeat, gender Male, age 6 weeks
Conditions: in vivo, po, 0 mg/kg, route gavage, dose level Control; for APTT / Bas / Eos / Fbg / Hb / Ht / Lym / MCH / MCHC / MCV / Mono / Neu / PT / Plat / RBC / Ret / WBC: tissue Blood; for LIVER: tissue Liver; for A/G / ALP / ALT / AST / BUN / CRE / Ca / Cl / DBIL / GLC / IP / K / LDH / Na / PL / RALB / TBIL / TC / TG / TP / gamma-GTP: tissue Plasma

O=[N+]([O-])c1ccc(O)c([N+](=O)[O-])c1 [2,4-DINITROPHENOL]
TERMINAL_BW (72 h, time 3 day): 246.4 g | APTT (72 h, time 3 day): 16.7 s | Bas (72 h, time 3 day): 0% | Eos (72 h, time 3 day): 1.2% | Fbg (72 h, time 3 day): 265 mg/dL | Hb (72 h, time 3 day): 12.8 g/dL | Ht (72 h, time 3 day): 38.3% | Lym (72 h, time 3 day): 74.4% | MCH (72 h, time 3 day): 21.4 pg | MCHC (72 h, time 3 day): 33.5% | MCV (72 h, time 3 day): 64 fL | Mono (72 h, time 3 day): 4.8% | Neu (72 h, time 3 day): 19.8% | PT (72 h, time 3 day): 11.6 s | Plat (72 h, time 3 day): 131.4 x10_4/uL | RBC (72 h, time 3 day): 599.4 x10_4/ul | Ret (72 h, time 3 day): 6% | WBC (72 h, time 3 day): 119.4 x10_2/uL | LIVER (72 h, time 3 day): 11.9 g | A/G (72 h, time 3 day): 2.3 | ALP (72 h, time 3 day): 1481 IU/L | ALT (72 h, time 3 day): 33.8 IU/L | AST (72 h, time 3 day): 62.6 IU/L | BUN (72 h, time 3 day): 15.6 mg/dL | CRE (72 h, time 3 day): 0.4 mg/dL | Ca (72 h, time 3 day): 11.6 mg/dL | Cl (72 h, time 3 day): 103.2 meq/L | DBIL (72 h, time 3 day): 0.01 mg/dL | GLC (72 h, time 3 day): 183 mg/dL | IP (72 h, time 3 day): 7.4 mg/dL | K (72 h, time 3 day): 4.7 meq/L | LDH (72 h, time 3 day): 91.6 IU/L | Na (72 h, time 3 day): 138.2 meq/L | PL (72 h, time 3 day): 156.2 mg/dL | RALB (72 h, time 3 day): 3.9 g/dL | TBIL (72 h, time 3 day): 0.034 mg/dL | TC (72 h, time 3 day): 84.2 mg/dL | TG (72 h, time 3 day): 137 mg/dL | TP (72 h, time 3 day): 5.6 g/dL | gamma-GTP (72 h, time 3 day): 0.8 IU/L | TERMINAL_BW ([…], time 7 day): 271.5 g | TERMINAL_BW ([…], time 14 day): 341.5 g | TERMINAL_BW ([…], time 28 day): 452.7 g | APTT ([…], time 7 day): 16 s | Bas ([…], time 7 day): 0% | Eos ([…], time 7 day): 1% | Fbg ([…], time 7 day): 247 mg/dL | Hb ([…], time 7 day): 13.5 g/dL | Ht ([…], time 7 day): 39.8% | Lym ([…], time 7 day): 77.2% | MCH ([…], time 7 day): 21.5 pg | MCHC ([…], time 7 day): 33.9% | MCV ([…], time 7 day): 63.4 fL | Mono ([…], time 7 day): 5% | Neu ([…], time 7 day): 16.8% | PT ([…], time 7 day): 11.6 s | Plat ([…], time 7 day): 133.8 x10_4/uL | RBC ([…], time 7 day): 629 x10_4/ul | Ret ([…], time 7 day): 5% | WBC ([…], time 7 day): 101.8 x10_2/uL | APTT ([…], time 14 day): 16.5 s | Bas ([…], time 14 day): 0% | Eos ([…], time 14 day): 1% | Fbg ([…], time 14 day): 243.2 mg/dL | Hb ([…], time 14 day): 13.8 g/dL | Ht ([…], time 14 day): 40.7% | Lym ([…], time 14 day): 73% | MCH ([…], time 14 day): 20.9 pg | MCHC ([…], time 14 day): 33.9% | MCV ([…], time 14 day): 61.7 fL | Mono ([…], time 14 day): 5% | Neu ([…], time 14 day): 21% | PT ([…], time 14 day): 11.6 s | Plat ([…], time 14 day): 130 x10_4/uL | RBC ([…], time 14 day): 660.8 x10_4/ul | Ret ([…], time 14 day): 3.9% | WBC ([…], time 14 day): 124.2 x10_2/uL | APTT ([…], time 28 day): 15.9 s | Bas ([…], time 28 day): 0% | Eos ([…], time 28 day): 1% | Fbg ([…], time 28 day): 278.4 mg/dL | Hb ([…], time 28 day): 14.8 g/dL | Ht ([…], time 28 day): 43.5% | Lym ([…], time 28 day): 78.4% | MCH ([…], time 28 day): 19.6 pg | MCHC ([…], time 28 day): 34% | MCV ([…], time 28 day): 57.7 fL | Mono ([…], time 28 day): 5.6% | Neu ([…], time 28 day): 15.4% | PT ([…], time 28 day): 11.6 s | Plat ([…], time 28 day): 117.2 x10_4/uL | RBC ([…], time 28 day): 754.6 x10_4/ul | Ret ([…], time 28 day): 2.8% | WBC ([…], time 28 day): 107.4 x10_2/uL | LIVER ([…], time 7 day): 13.1 g | LIVER ([…], time 14 day): 16.5 g | LIVER ([…], time 28 day): 19.9 g | A/G ([…], time 7 day): 2.2 | ALP ([…], time 7 day): 1556.6 IU/L | ALT ([…], time 7 day): 38.6 IU/L | AST ([…], time 7 day): 68.8 IU/L | BUN ([…], time 7 day): 18.2 mg/dL | CRE ([…], time 7 day): 0.4 mg/dL | Ca ([…], time 7 day): 11.4 mg/dL | Cl ([…], time 7 day): 105.8 meq/L | DBIL ([…], time 7 day): 0.014 mg/dL | GLC ([…], time 7 day): 182.2 mg/dL | IP ([…], time 7 day): 7.7 mg/dL | K ([…], time 7 day): 4.7 meq/L | LDH ([…], time 7 day): 107 IU/L | Na ([…], time 7 day): 141.2 meq/L | PL ([…], time 7 day): 154.8 mg/dL | RALB ([…], time 7 day): 3.8 g/dL | TBIL ([…], time 7 day): 0.028 mg/dL | TC ([…], time 7 day): 80 mg/dL | TG ([…], time 7 day): 162.4 mg/dL | TP ([…], time 7 day): 5.5 g/dL | gamma-GTP ([…], time 7 day): 0.8 IU/L | A/G ([…], time 14 day): 2 | ALP ([…], time 14 day): 1126.4 IU/L | ALT ([…], time 14 day): 33.4 IU/L | AST ([…], time 14 day): 59.6 IU/L | BUN ([…], time 14 day): 18.4 mg/dL | CRE ([…], time 14 day): 0.3 mg/dL | Ca ([…], time 14 day): 11.4 mg/dL | Cl ([…], time 14 day): 104.2 meq/L | DBIL ([…], time 14 day): 0.012 mg/dL | GLC ([…], time 14 day): 186 mg/dL | IP ([…], time 14 day): 7.4 mg/dL | K ([…], time 14 day): 4.6 meq/L | LDH ([…], time 14 day): 101.6 IU/L | Na ([…], time 14 day): 136.8 meq/L | PL ([…], time 14 day): 151.4 mg/dL | RALB ([…], time 14 day): 4 g/dL | TBIL ([…], time 14 day): 0.024 mg/dL | TC ([…], time 14 day): 72.8 mg/dL | TG ([…], time 14 day): 182 mg/dL | TP ([…], time 14 day): 6 g/dL | gamma-GTP ([…], time 14 day): 0 IU/L | A/G ([…], time 28 day): 1.8 | ALP ([…], time 28 day): 930.8 IU/L | ALT ([…], time 28 day): 30.8 IU/L | AST ([…], time 28 day): 58.6 IU/L | BUN ([…], time 28 day): 20.2 mg/dL | CRE ([…], time 28 day): 0.5 mg/dL | Ca ([…], time 28 day): 11.2 mg/dL | Cl ([…], time 28 day): 103.4 meq/L | DBIL ([…], time 28 day): 0.016 mg/dL | GLC ([…], time 28 day): 195.4 mg/dL | IP ([…], time 28 day): 7.2 mg/dL | K ([…], time 28 day): 4.4 meq/L | LDH ([…], time 28 day): 108.8 IU/L | Na ([…], time 28 day): 140.6 meq/L | PL ([…], time 28 day): 161.6 mg/dL | RALB ([…], time 28 day): 4 g/dL | TBIL ([…], time 28 day): 0.036 mg/dL | TC ([…], time 28 day): 79.8 mg/dL | TG ([…], time 28 day): 228.8 mg/dL | TP ([…], time 28 day): 6.2 g/dL | gamma-GTP ([…], time 28 day): 0.4 IU/L
